Experimental findings from ChEMBL document CHEMBL1154047, “Chiral gossypol derivatives: evaluation of their anticancer activity and molecular modeling” (Eur J Med Chem, 2009) are described below.

Assay [1] has as its system HeLa. The assay can be described thus: Ratio of compound IC50 to cisplatin IC50 for human HeLa cells. In kind it is functional.
A short description of assay [2]: Ratio of compound IC50 to cisplatin IC50 for human M85 cells. In kind it is functional.
Assay [3] in a line: Ratio of compound IC50 to cisplatin IC50 for human U87 cells. In kind it is functional, U-87MG ATCC.
Assay [4] deals with HeLa. Description: Ratio of compound IC50 to (-)-gossypol IC50 for human HeLa cells. In kind it is functional.
Assay [5] in a line: Ratio of compound IC50 to (-)-gossypol IC50 for human U87 cells. In kind it is functional, U-87MG ATCC.
Assay [6] in a line: Anticancer activity against human M85 cells after 48 hrs by MTT assay. In kind it is functional, cell-based.
In assay [7] the test system is HeLa. The assay can be described thus: Anticancer activity against human HeLa cells after 48 hrs by MTT assay. In kind it is functional, cell-based. (In general: Tetrazolium dyes change colour on reduction, which living cells bring about.)
Assay [8] in a line: Anticancer activity against human U87 cells after 48 hrs by MTT assay. Format: functional, cell-based, U-87MG ATCC.
Assay [9] in a line: Ratio of compound IC50 to (-)-gossypol IC50 for human M85 cells. Format: functional.

Values joined by “and” are separate entries in the source; they are usually repeats but may differ in a detail not shown here. Equal entries are not always repeated.

As for `Cc1cc2c(c(O)c1-c1c(C)cc3c(c1O)/C(=C/NC(C)C)C(=O)C(O)=C3C(C)C)/C(=C/NC(C)C)C(=O)C(O)=C2C(C)C` (stereo in doubt; 10b), the “Ratio IC50” value in assay [1] was found to be 1.36; in assay [2], 2.04; in [3], 1.43; in [4] it was 0.96; in [5], 0.81; in assay [9], 1.66. Further, the results for the IC50 in [6] (m85), in assay [7] (hela) and in assay [8] (u-87mg atcc) were 30.4 µM, 17.1 µM and 24.4 µM, respectively.

`Cc1cc2c(C(C)C)c(O)c(O)cc2c(O)c1-c1c(C)cc2c(C(C)C)c(O)c(O)cc2c1O` [APOGOSSYPOL]: the “Ratio IC50” value in assay [1] was 2.02 and 1.12; in assay [2], 4.11; in assay [3], 2.08 and 1.67; in [4] it was 1.43 and 0.79; in assay [5] it was 1.17 and 0.94; in assay [9], 3.33. Besides, the IC50 in assay [6] (Homo sapiens, M85, 48 h) was greater than 80 µM; in assay [6] (m85) it was 61.2 µM; in [7] (Homo sapiens, HeLa, 48 h), 25.5 µM; in assay [7] (hela), 14.1 µM; in [8] (Homo sapiens, U-87 MG, 48 h), 35.5 µM; in [8] (u-87mg atcc) it was 28.5 µM.

For `CC1=C(C2=C(C)C(=O)c3c(c(C=O)c(O)c(O)c3C(C)C)C2=O)C(=O)c2c(C=O)c(O)c(O)c(C(C)C)c2C1=O` [GOSSYPOLONE], the “Ratio IC50” value is 1.85 in assay [1]; 1.9 in assay [2]; 1.53 in [3]; 1.31 in assay [4]; 0.86 in assay [5]; 1.54 in [9]. Further, the half-inhibitory concentration (IC50) in [6] (Homo sapiens, M85, 48 h) worked out at 28.3 µM; in [7] (Homo sapiens, HeLa, 48 h) it was 23.3 µM; in [8] (Homo sapiens, U-87 MG, 48 h) it was 26.1 µM.

Take `Cc1cc2c(C(C)C)c(O)c(O)c(C=O)c2c(O)c1-c1c(C)cc2c(C(C)C)c(O)c(O)c(C=O)c2c1O` [GOSSYPOL]: the “Ratio IC50” value in assay [1] is 1.41 and 2.48; in assay [2] it was 1.23 and 2.66; in [3] it was 1.77 and 3.49; in assay [4], 1 and 1.76; in assay [5], 1 and 1.97; in [9], 1 and 2.16. The IC50 in assay [6] (m85) is 18.4 µM and 39.7 µM; in assay [7] (Homo sapiens, HeLa, 48 h) it was 17.8 µM; in [7] (hela), 31.3 µM; in [8] (Homo sapiens, U-87 MG, 48 h), 30.2 µM; in [8] (u-87mg atcc) it was 59.6 µM.

As a reminder, the IC50 is the concentration that inhibits the measured activity by half. A lower IC50 goes with higher potency.
